Reference: ChEMBL document CHEMBL4402592, “Targeting Endoplasmic Reticulum α-Glucosidase I with a Single-Dose Iminosugar Treatment Protects against Lethal Influenza and Dengue Virus Infections” (J Med Chem, 2020)
Active and inactive are the calls of the source. The rule behind the calls is not given here.

Tests used:
Mus musculus [1] = assay: In vivo inhibition of ERGlu2 in BALB/c mouse assessed as increase in mono-glucosylated FOS level in serum at 100 mg/kg, po administered via gavage starting at 8 hrs post-infection and continuing tid for 5 days and measured at 8 hrs post-final dose by NP-HPLC analysis; type: functional, organism-based
Influenza A virus [2] = assay: Antiviral activity against Influenza A virus (A/Texas/36/1991(H1N1)) infected in BALB/c mouse assessed as animal survival at 750 mg/kg, po administered via gavage as single dose at 8 hrs post infection (reference value: 0%); type: functional
Influenza A virus [3] = assay: Antiviral activity against Influenza A virus (A/Texas/36/1991(H1N1)) infected in BALB/c mouse assessed as animal survival at 500 mg/kg, po administered via gavage as single dose at 8 hrs post infection (reference value: 0%); type: functional
Influenza A virus [4] = assay: Antiviral activity against Influenza A virus (A/Texas/36/1991(H1N1)) infected in BALB/c mouse assessed as animal survival at 250 mg/kg, po administered via gavage as single dose at 8 hrs post infection (reference value: 0%); type: functional
Influenza A virus [5] = assay: Antiviral activity against Influenza A virus (A/Texas/36/1991(H1N1)) infected in BALB/c mouse assessed as animal survival at 750 mg/kg, po administered via gavage as two doses at 8 and 32 hrs post infection (reference value: 0%); type: functional
Influenza A virus [6] = assay: Antiviral activity against Influenza A virus (A/Texas/36/1991(H1N1)) infected in BALB/c mouse assessed as animal survival at 250 mg/kg, po administered via gavage as three doses at 8, 32 and 56 hrs post infection (reference value: 0%); type: functional
Influenza A virus [7] = assay: Antiviral activity against Influenza A virus (A/Texas/36/1991(H1N1)) infected in BALB/c mouse assessed as median death time at 250 mg/kg, po administered via gavage as single dose at 8 hrs post infection; type: functional
dengue virus type 2 [8] = assay: Antiviral activity against Dengue virus 2 S221 infected in DENV antibody dependent enhancement AG129 mouse model assessed as animal survival at 750 mg/kg, po administered via gavage as two doses at 16 and 32 hrs post infection (reference value: 4%); type: functional
dengue virus type 2 [9] = assay: Antiviral activity against Dengue virus 2 S221 infected in DENV antibody dependent enhancement AG129 mouse model assessed as animal survival at 250 mg/kg, po administered via gavage as two doses at 36 and 52 hrs post infection (reference value: 4%); type: functional
dengue virus type 2 [10] = assay: Antiviral activity against Dengue virus 2 S221 infected in DENV antibody dependent enhancement AG129 mouse model assessed as animal survival at 375 mg/kg, po administered via gavage as two doses at 36 and 52 hrs post infection (reference value: 4%); type: functional
dengue virus type 2 [11] = assay: Antiviral activity against Dengue virus 2 S221 infected in DENV antibody dependent enhancement AG129 mouse model assessed as animal survival at 750 mg/kg, po administered via gavage as two doses at 36 and 52 hrs post infection (reference value: 4%); type: functional
dengue virus type 2 [12] = assay: (§1) Antiviral activity against Dengue virus 2 S221 infected in DENV antibody dependent enhancement AG129 mouse model assessed as reduction in IL10 level at 750 mg/kg, po administered via gavage as single dose at 36 hrs post infection measured at 60 hrs post-infection by electrochemiluminescence based method; type: functional, organism-based
dengue virus type 2 [13] = assay: as §1, with “KC-GRO” for “IL10”; type: functional, organism-based
dengue virus type 2 [14] = assay: as §1, with “IFN-gamma” for “IL10”, “two doses” for “single dose”, “36 hrs and 52” for “36”; type: functional, organism-based
dengue virus type 2 [15] = assay: as §1, with “KC-GRO” for “IL10”, “two doses” for “single dose”, “36 hrs and 52” for “36”; type: functional, organism-based
dengue virus type 2 [16] = assay: as §1, with “IL-10” for “IL10”, “72” for “60”; type: functional, organism-based
dengue virus type 2 [17] = assay: as §1, with “IL-12/IL-23p40” for “IL10”, “two doses” for “single dose”, “36 hrs and 52” for “36”, “72” for “60”; type: functional, organism-based
Mus musculus [18] = assay: In vivo inhibition of ERGlu1 in BALB/c mouse assessed as increase in tri-glucosylated FOS level in spleen at >250 mg/kg, po administered via gavage as single dose at 8 hrs post-infection and measured at 8 hrs post dose by NP-HPLC analysis; type: functional, organism-based
Cynomolgus monkey [19] = assay: In vivo inhibition of ERGlu1 in cynomolgus monkey assessed as increase in tri-glucosylated FOS at level in serum 128 to 258 mg/kg, po administered via gavage as single dose measured after 8 to 72 hrs by NP-HPLC analysis; type: functional, organism-based; settings: Macaca fascicularis
[20] = Toxicity in po dosed cynomolgus monkey assessed as maximum tolerated dose administered via gavage as single dose; type: organism-based, Macaca fascicularis; settings: in vivo
dengue virus type 2 [21] = assay: (§2) Antiviral activity against Dengue virus 2 S221 infected in DENV antibody dependent enhancement AG129 mouse model assessed as log10 reduction in viremia by measuring foci of BHK21 cells containing DENV E at 750 mg/kg, po administered via gavage as single dose at 36 hrs post infection measured after titration of compound treated infected animal serum with BHK21 cells by TrueBlue staining based focus forming assay; type: functional
dengue virus type 2 [22] = assay: Antiviral activity against Dengue virus 2 S221 infected in DENV antibody dependent enhancement AG129 mouse model assessed as reduction in viremia at 750 mg/kg, po administered via gavage as two doses at 36 hrs and 52 hrs post infection by qRT-PCR analysis; type: functional, organism-based
dengue virus type 2 [23] = assay: as §2, with “as” for “as log10”, “two doses” for “single dose”, “36 hrs and 52” for “36”; type: functional, organism-based
dengue virus type 2 [24] = assay: as §1, with “TNF-alpha” for “IL10”, “72” for “60”; type: functional, organism-based
Cynomolgus monkey [25] = assay: In vivo inhibition of ERGlu2 in cynomolgus monkey serum assessed as increase in mono-glucosylated FOS level in serum at 26 to 258 mg/kg, po administered via gavage as single dose and measured up to 72 hrs post-dose by NP-HPLC analysis; type: functional, organism-based; settings: Macaca fascicularis
Mus musculus [26] = assay: In vivo inhibition of ERGlu1 in BALB/c mouse assessed as increase in mono-glucosylated FOS level in spleen at 100 to 1000 mg/kg, po administered via gavage at 8 hrs post-infection and measured at 8 hrs post-dose by NP-HPLC analysis; type: functional, organism-based
Mus musculus [27] = assay: In vivo inhibition of ERGlu1 in BALB/c mouse assessed as increase in mono-glucosylated FOS level in lung at 100 to 1000 mg/kg, po administered via gavage at 8 hrs post-infection and measured at 8 hrs post-dose by NP-HPLC analysis; type: functional, organism-based
Mus musculus [28] = assay: In vivo inhibition of ERGlu2 in BALB/c mouse assessed as increase in mono-glucosylated FOS level in lung at 20 mg/kg, po administered via gavage starting at 8 hrs post-infection and continuing tid for 5 days and measured at 8 hrs post-final dose by NP-HPLC analysis; type: functional, organism-based

In the case of `COCCCCCCCCCN1C[C@H](O)[C@@H](O)[C@H](O)[C@H]1CO.Cl`, the inhibition (Mus musculus [1]) is reported as “Active”, the survival at 750 mg/kg (Influenza A virus [2]) is reported as 80% and the survival at 500 mg/kg (Influenza A virus [3]) is reported as 50%. The survival at 250 mg/kg (Influenza A virus [4]) was 30%, the survival at 750 mg/kg (Influenza A virus [5]) was 100% and the survival at 250 mg/kg (Influenza A virus [6]) was 0%. For the same molecule, the Time (Influenza A virus [7]) was 8 days, the survival at 750 mg/kg (dengue virus type 2 [8]) was 100% and the survival at 250 mg/kg (dengue virus type 2 [9]) was 100%. For the same molecule, the survival at 375 mg/kg (dengue virus type 2 [10]) was 100%, the survival at 750 mg/kg (dengue virus type 2 [11]) was 100% and the Activity (dengue virus type 2 [12]) was “Active”. For the same molecule, the Activity (dengue virus type 2 [13]) was “Active”, the Activity (dengue virus type 2 [14]) was “Active” and the Activity (dengue virus type 2 [15]) was “Active”. The Activity (dengue virus type 2 [16]) was “Active”, the Activity (dengue virus type 2 [17]) was “Active” and the inhibition (Mus musculus [18]) was “Active”. The inhibition (Cynomolgus monkey [19]) was “Active”, the MTD [20] was 258 mg/kg and the “log(activity)” value (dengue virus type 2 [21]) was >1. The Activity (dengue virus type 2 [22]) was “Active”, the Activity (dengue virus type 2 [23]) was “Active” and the Activity (dengue virus type 2 [24]) was “Active”. For the same molecule, the inhibition (Cynomolgus monkey [25]) was “Active”, the inhibition (Mus musculus [26]) was “Active” and the inhibition (Mus musculus [27]) was “Active”. The inhibition (Mus musculus [28]) was “Active”.
